# Values quoted from earlier work in patent publication US20070015728A1, “Metered-dose and safety and compliance packaging for systemic anticancer therapy” (priority 2005, published 2007).
# Assays:
# [1] = molecular target: T1, OPRT (Homo sapiens, UniProt P11172); settings: neutral pH
# T1 sequence (P11172 1-480): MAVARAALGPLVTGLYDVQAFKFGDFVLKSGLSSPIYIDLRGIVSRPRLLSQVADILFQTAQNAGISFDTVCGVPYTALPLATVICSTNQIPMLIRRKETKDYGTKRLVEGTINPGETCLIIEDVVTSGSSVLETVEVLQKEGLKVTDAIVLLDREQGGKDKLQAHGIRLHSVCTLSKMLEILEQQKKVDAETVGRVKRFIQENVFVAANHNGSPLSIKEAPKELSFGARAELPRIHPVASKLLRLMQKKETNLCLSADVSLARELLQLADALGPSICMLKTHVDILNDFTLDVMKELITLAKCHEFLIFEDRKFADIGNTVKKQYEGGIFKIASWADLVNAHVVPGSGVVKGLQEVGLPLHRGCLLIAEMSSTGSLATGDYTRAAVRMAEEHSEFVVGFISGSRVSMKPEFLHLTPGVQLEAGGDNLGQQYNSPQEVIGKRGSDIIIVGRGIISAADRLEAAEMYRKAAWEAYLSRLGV
# [2] = tested on: hand-foot syndrome (HFS); settings: treatment with capecitabine at the FDA-approved dose; XELODA product insert
smiles,measurement,setting,value
O=C(O)c1cc(=O)[nH]c(=O)[nH]1 [Orotate],"Km for OPRT, fold lower than 5-FU",[1],~50 fold
"CCCCCOC(=O)Nc1nc(=O)n([C@@H]2O[C@H](C)[C@@H](O)[C@H]2O)cc1F [Xeloda, Capecitabine]",grade 3 incidence of HFS,[2],11-17%
same,incidence of HFS irrespective of grade,[2],54%-67%
